Laboratory results taken from patent publication US20250275540A1, “USE OF PROTOPORPHYRINOGEN OXIDASE” (BEIJING DABEINONG BIOTECHNOLOGY CO., LTD., priority 2022, published 2025).

Tested on: transgenic maize plants
Assay: Detection of the herbicide tolerance of the transgenic maize plants
Type: in vivo
Conditions: for The grade of pesticide damage/plant: 0 / The grade of pesticide damage/plant: 1 / The grade of pesticide damage/plant: 2 / The grade of pesticide damage/plant: 3: 7 DAT
Text: The transformed Arabidopsis thaliana T1 plants were initially selected using glufosinate herbicide. The Arabidopsis thaliana T1 plants (PPOA-01) into which the PPOA-01 nucleotide sequence was introduced, the Arabidopsis thaliana T1 plants (PPOB-01) into which the PPOB-01 nucleotide sequence was introduced, the Arabidopsis thaliana T1 plants (PPOC-01) into which the PPOC-01 nucleotide sequence was introduced, the Arabidopsis thaliana T1 plants (PPOD-01) into which the PPOD-01 nucleotide sequence was introduced, the Arabidopsis thaliana T1 plants (PPOE-01) into which the PPOE-01 nucleotide sequence was introduced, the Arabidopsis thaliana T1 plants (PPOF-01) into which the PPOF-01 nucleotide sequence was introduced, the Arabidopsis thaliana T1 plants (PPO-AP-01) into which the PPO-AP-01 nucleotide sequence was introduced, and the Arabidopsis thaliana T1 plants (control vector) into which the control vector was introduced, the wild-type Arabidopsis thaliana plants (CK) (with 24 plants being included in each genotype) (18 days after sowing) were sprayed with saflufenacil at three concentrations (25 g ai/ha (one-fold field concentration, 1×), 100 g ai/ha (four-fold field concentration, 4×), and 0 g ai/ha (water, 0×)), oxyfluorfen at three concentrations (180 g ai/ha (one-fold field concentration, 1×), 720 g ai/ha (four-fold field concentration, 4×), and 0 g ai/ha (water, 0×)), and flumioxazin at three concentrations (60 g ai/ha (one-fold field concentration, 1×), 240 g ai/ha (four-fold field concentration, 4×), and 0 g ai/ha (water, 0×) to determine the tolerance of Arabidopsis thaliana to the herbicides. After 7 days of spraying (7 DAT), the damage level of each plant caused by the herbicide was evaluated according to the average of the damage levels (%) of plants (the average of the damage levels (%) of plants=the injured leaf area/the total leaf area×100%), i.e., the grade of pesticide damage: grade 0 means that the growth status of plants is essentially consistent with those sprayed with the blank solvent (water); grade 1 means that the average of the damage levels of plants is less than 10%; grade 2 means that the average of the damage levels of plants is greater than 10%; and grade 3 means that the average of the damage levels of plants is 100%. The plants having a growth status falling within grades 0 and 1 are classified as highly resistant plants; those having a growth status falling within grade 2 are classified as poorly resistant plants; and those having a growth status falling within grade 3 are classified as non-resistant plants.
The maize plants into which the PPOA-02 nucleotide sequence was introduced, the maize plants into which the PPOB-02 nucleotide sequence was introduced, the maize plants into which the PPOC-02 nucleotide sequence was introduced, the maize plants into which the PPOD-02 nucleotide sequence was introduced, the maize plants into which the PPOE-02 nucleotide sequence was introduced, the maize plants into which the PPOF-02 nucleotide sequence was introduced, the maize plants into which the PPO-AP-02 nucleotide sequence was introduced, the maize plants (control vector) into which the control vector was introduced, and the wild-type maize plants (CK) (with 16 plants being included in each genotype) (18 days after sowing) were taken and sprayed with saflufenacil at three concentrations (50 g ai/ha (two-fold field concentration, 2×), 100 g ai/ha (four-fold field concentration, 4×), and 0 g ai/ha (water, 0×)), oxyfluorfen at three concentrations (360 g ai/ha (two-fold field concentration, 2×), 720 g ai/ha (four-fold field concentration, 4×), and 0 g ai/ha (water, 0×), and flumioxazin at three concentrations (120 g ai/ha (two-fold field concentration, 2×), 240 g ai/ha (four-fold field concentration, 4×), and 0 g ai/ha (water, 0×) to determine the tolerance of maize plants to the herbicides. […]

[1] = genotype Control vector, 120 g ai/ha
[2] = genotype Control vector, 240 g ai/ha
[3] = genotype PPO-AP-02, 120 g ai/ha
[4] = genotype PPO-AP-02, 240 g ai/ha

C#CCN1C(=O)COc2cc(F)c(N3C(=O)C4=C(CCCC4)C3=O)cc21 [flumioxazin, 2-[7-fluoro-3,4-dihydro-3-oxo-4-(2-propynyl)-2H-1,4-benzoxazin-6-yl]-4,5,6,7-tetrahydro-1H-isoindole-1,3(2H)-dione]
The grade of pesticide damage/plant: 0 (genotype CK, 120 g ai/ha): 0 plant | The grade of pesticide damage/plant: 1 (genotype CK, 120 g ai/ha): 0 plant | The grade of pesticide damage/plant: 2 (genotype CK, 120 g ai/ha): 0 plant | The grade of pesticide damage/plant: 3 (genotype CK, 120 g ai/ha): 16 plant | The grade of pesticide damage/plant: 0 (genotype CK, 240 g ai/ha): 0 plant | The grade of pesticide damage/plant: 1 (genotype CK, 240 g ai/ha): 0 plant | The grade of pesticide damage/plant: 2 (genotype CK, 240 g ai/ha): 0 plant | The grade of pesticide damage/plant: 3 (genotype CK, 240 g ai/ha): 16 plant | The grade of pesticide damage/plant: 0 [1]: 0 plant | The grade of pesticide damage/plant: 1 [1]: 0 plant | The grade of pesticide damage/plant: 2 [1]: 0 plant | The grade of pesticide damage/plant: 3 [1]: 16 plant | The grade of pesticide damage/plant: 0 [2]: 0 plant | The grade of pesticide damage/plant: 1 [2]: 0 plant | The grade of pesticide damage/plant: 2 [2]: 0 plant | The grade of pesticide damage/plant: 3 [2]: 16 plant | The grade of pesticide damage/plant: 0 [3]: 0 plant | The grade of pesticide damage/plant: 1 [3]: 0 plant | The grade of pesticide damage/plant: 2 [3]: 3 plant | The grade of pesticide damage/plant: 3 [3]: 13 plant | The grade of pesticide damage/plant: 0 [4]: 0 plant | The grade of pesticide damage/plant: 1 [4]: 0 plant | The grade of pesticide damage/plant: 2 [4]: 0 plant | The grade of pesticide damage/plant: 3 [4]: 16 plant | tolerance to the herbicide (in words) (genotype PPO-AP-02, at different concentrations): basically no tolerance | The grade of pesticide damage/plant: 0 (genotype PPOA-02, 120 g ai/ha): 16 plant | The grade of pesticide damage/plant: 1 (genotype PPOA-02, 120 g ai/ha): 0 plant | The grade of pesticide damage/plant: 2 (genotype PPOA-02, 120 g ai/ha): 0 plant | The grade of pesticide damage/plant: 3 (genotype PPOA-02, 120 g ai/ha): 0 plant | The grade of pesticide damage/plant: 0 (genotype PPOA-02, 240 g ai/ha): 16 plant | The grade of pesticide damage/plant: 1 (genotype PPOA-02, 240 g ai/ha): 0 plant | The grade of pesticide damage/plant: 2 (genotype PPOA-02, 240 g ai/ha): 0 plant | The grade of pesticide damage/plant: 3 (genotype PPOA-02, 240 g ai/ha): 0 plant | The grade of pesticide damage/plant: 0 (genotype PPOB-02, 120 g ai/ha): 16 plant | The grade of pesticide damage/plant: 1 (genotype PPOB-02, 120 g ai/ha): 0 plant | The grade of pesticide damage/plant: 2 (genotype PPOB-02, 120 g ai/ha): 0 plant | The grade of pesticide damage/plant: 3 (genotype PPOB-02, 120 g ai/ha): 0 plant | The grade of pesticide damage/plant: 0 (genotype PPOB-02, 240 g ai/ha): 16 plant | The grade of pesticide damage/plant: 1 (genotype PPOB-02, 240 g ai/ha): 0 plant | The grade of pesticide damage/plant: 2 (genotype PPOB-02, 240 g ai/ha): 0 plant | The grade of pesticide damage/plant: 3 (genotype PPOB-02, 240 g ai/ha): 0 plant | The grade of pesticide damage/plant: 0 (genotype PPOC-02, 120 g ai/ha): 16 plant | The grade of pesticide damage/plant: 1 (genotype PPOC-02, 120 g ai/ha): 0 plant | The grade of pesticide damage/plant: 2 (genotype PPOC-02, 120 g ai/ha): 0 plant | The grade of pesticide damage/plant: 3 (genotype PPOC-02, 120 g ai/ha): 0 plant | The grade of pesticide damage/plant: 0 (genotype PPOC-02, 240 g ai/ha): 16 plant | The grade of pesticide damage/plant: 1 (genotype PPOC-02, 240 g ai/ha): 0 plant | The grade of pesticide damage/plant: 2 (genotype PPOC-02, 240 g ai/ha): 0 plant | The grade of pesticide damage/plant: 3 (genotype PPOC-02, 240 g ai/ha): 0 plant | The grade of pesticide damage/plant: 0 (genotype PPOD-02, 120 g ai/ha): 16 plant | The grade of pesticide damage/plant: 1 (genotype PPOD-02, 120 g ai/ha): 0 plant | The grade of pesticide damage/plant: 2 (genotype PPOD-02, 120 g ai/ha): 0 plant | The grade of pesticide damage/plant: 3 (genotype PPOD-02, 120 g ai/ha): 0 plant | The grade of pesticide damage/plant: 0 (genotype PPOD-02, 240 g ai/ha): 16 plant | The grade of pesticide damage/plant: 1 (genotype PPOD-02, 240 g ai/ha): 0 plant | The grade of pesticide damage/plant: 2 (genotype PPOD-02, 240 g ai/ha): 0 plant | The grade of pesticide damage/plant: 3 (genotype PPOD-02, 240 g ai/ha): 0 plant | The grade of pesticide damage/plant: 0 (genotype PPOE-02, 120 g ai/ha): 16 plant | The grade of pesticide damage/plant: 1 (genotype PPOE-02, 120 g ai/ha): 0 plant | The grade of pesticide damage/plant: 2 (genotype PPOE-02, 120 g ai/ha): 0 plant | The grade of pesticide damage/plant: 3 (genotype PPOE-02, 120 g ai/ha): 0 plant | The grade of pesticide damage/plant: 0 (genotype PPOE-02, 240 g ai/ha): 16 plant | The grade of pesticide damage/plant: 1 (genotype PPOE-02, 240 g ai/ha): 0 plant | The grade of pesticide damage/plant: 2 (genotype PPOE-02, 240 g ai/ha): 0 plant | The grade of pesticide damage/plant: 3 (genotype PPOE-02, 240 g ai/ha): 0 plant | The grade of pesticide damage/plant: 0 (genotype PPOF-02, 120 g ai/ha): 16 plant | The grade of pesticide damage/plant: 1 (genotype PPOF-02, 120 g ai/ha): 0 plant | The grade of pesticide damage/plant: 2 (genotype PPOF-02, 120 g ai/ha): 0 plant | The grade of pesticide damage/plant: 3 (genotype PPOF-02, 120 g ai/ha): 0 plant | The grade of pesticide damage/plant: 0 (genotype PPOF-02, 240 g ai/ha): 16 plant | The grade of pesticide damage/plant: 1 (genotype PPOF-02, 240 g ai/ha): 0 plant | The grade of pesticide damage/plant: 2 (genotype PPOF-02, 240 g ai/ha): 0 plant | The grade of pesticide damage/plant: 3 (genotype PPOF-02, 240 g ai/ha): 0 plant | tolerance to the herbicide (in words) (genotypes PPOA-02 to PPOF-02, at different concentrations): high-resistant tolerance
